Source: PubChem BioAssay (NCI)
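Tested at 5 concentrations; 48 h exposure; 96-well plates; endpoints linearly interpolated, else capped at highest concentration. Here, GI50 denotes the concentration required for 50% inhibition of growth. TGI marks complete inhibition of growth.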

How the values were obtained:
Assay in all cases: NCI anticancer screen, dose series, 48 h
786-0 renal = test system: 786-0 renal
A498 renal = test system: A498 renal
A549 NSCLC = test system: A549 NSCLC
ACHN renal = test system: ACHN renal
BT-549 breast = test system: BT-549 breast
CAKI-1 renal = test system: CAKI-1 renal
COLO 205 colon = test system: COLO 205 colon
HCC-2998 colon = test system: HCC-2998 colon
HCT-116 colon = test system: HCT-116 colon
HCT-15 colon = test system: HCT-15 colon
HL-60(TB) leukemia = test system: HL-60(TB) leukemia
HOP-62 NSCLC = test system: HOP-62 NSCLC
HOP-92 NSCLC = test system: HOP-92 NSCLC
HS 578T breast = test system: HS 578T breast
HT29 colon = test system: HT29 colon
IGROV1 ovarian = test system: IGROV1 ovarian
K-562 leukemia = test system: K-562 leukemia
KM12 colon = test system: KM12 colon
LOX IMVI melanoma = test system: LOX IMVI melanoma
M14 melanoma = test system: M14 melanoma
MALME-3M melanoma = test system: MALME-3M melanoma
MCF7 breast = test system: MCF7 breast
MDA-MB-231 breast = test system: MDA-MB-231 breast
MDA-MB-435 = test system: MDA-MB-435
MOLT-4 leukemia = test system: MOLT-4 leukemia
NCI-H23 lung = test system: NCI-H23 lung

## COc1cc(C(=O)/C=C/c2cc(-c3cc(OC)c(OC)c(OC)c3)n[nH]2)cc(OC)c1OC
786-0 renal
  GI50: 1560 nM
  TGI: 3250 nM
A498 renal
  GI50: 1610 nM
  TGI: 3590 nM
A549 NSCLC
  GI50: 2720 nM
  TGI: 12100 nM
ACHN renal
  GI50: 1620 nM
  TGI: 3010 nM
BT-549 breast
  GI50: 1570 nM
  TGI: 2960 nM
CAKI-1 renal
  GI50: 2580 nM
  TGI: 10900 nM
COLO 205 colon
  GI50: 1750 nM
  TGI: 3130 nM
HCC-2998 colon
  GI50: 1830 nM
  TGI: 3390 nM
HCT-116 colon
  GI50: 1310 nM
  TGI: 2590 nM
HCT-15 colon
  GI50: 1500 nM
  TGI: 3290 nM
HL-60(TB) leukemia
  GI50: 1930 nM
  TGI: 5520 nM
HOP-62 NSCLC
  GI50: 1460 nM
  TGI: 2890 nM
HOP-92 NSCLC
  GI50: 186 nM
  TGI: 1020 nM
HS 578T breast
  GI50: 2680 nM
  TGI: 53900 nM
HT29 colon
  GI50: 1790 nM
  TGI: 3370 nM
IGROV1 ovarian
  GI50: 3140 nM
  TGI: 10200 nM
K-562 leukemia
  GI50: 2960 nM
  TGI: > 100000 nM
KM12 colon
  GI50: 1490 nM
  TGI: 2930 nM
LOX IMVI melanoma
  GI50: 1520 nM
  TGI: 2910 nM
M14 melanoma
  GI50: 1790 nM
  TGI: 3320 nM
MALME-3M melanoma
  GI50: 1860 nM
  TGI: 4090 nM
MCF7 breast
  GI50: 646 nM
  TGI: 2070 nM
MDA-MB-231 breast
  GI50: 1520 nM
  TGI: 3800 nM
MDA-MB-435
  GI50: 1490 nM
  TGI: 2950 nM
MOLT-4 leukemia
  GI50: 2320 nM
  TGI: 8950 nM
NCI-H23 lung
  GI50: 3040 nM
  TGI: 9900 nM
